From PubChem BioAssay (NCI)
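Briefly, cells in 96-well plates were exposed to five compound concentrations for 48 h, and endpoints were estimated by linear interpolation. TGI denotes the concentration required for complete inhibition of growth.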

Columns and labels:
Test in all cases: NCI-60 cell line screen, 48 h
[1] = test system: HL-60(TB) leukemia
[2] = test system: SN12C renal
[3] = test system: LOX IMVI melanoma
[4] = test system: SF-539 CNS
[5] = test system: HOP-62 NSCLC
[6] = test system: OVCAR-8 ovarian
[7] = test system: NCI-H460 lung
[8] = test system: UACC-62 melanoma
[9] = test system: CCRF-CEM leukemia
[10] = test system: HS 578T breast
[11] = test system: COLO 205 colon
[12] = test system: HCT-116 colon
[13] = test system: ACHN renal
[14] = test system: SK-MEL-28 melanoma
[15] = test system: A498 renal
[16] = test system: A549 NSCLC
[17] = test system: SF-295 CNS
[18] = test system: T-47D breast
[19] = test system: SR leukemia
[20] = test system: KM12 colon
[21] = test system: RXF 393 renal
[22] = test system: SW-620 colon
[23] = test system: RPMI-8226 leukemia
[24] = test system: NCI-H226 lung
[25] = test system: M14 melanoma
[26] = test system: MDA-MB-435
[27] = test system: NCI/ADR-RES ovarian
[28] = test system: SNB-19 CNS
[29] = test system: SF-268 CNS
[30] = test system: DU-145 prostate
[31] = test system: HCC-2998 colon
[32] = test system: NCI-H23 lung
[33] = test system: K-562 leukemia
[34] = test system: SK-MEL-5 melanoma
[35] = test system: 786-0 renal
[36] = test system: UO-31 renal
[37] = test system: OVCAR-4 ovarian
[38] = test system: MCF7 breast
[39] = test system: MDA-N
[40] = test system: NCI-H522 lung
[41] = test system: IGROV1 ovarian
[42] = test system: SNB-75 CNS
[43] = test system: SK-MEL-2 melanoma
[44] = test system: U251 CNS
[45] = test system: UACC-257 melanoma
[46] = test system: HCT-15 colon
[47] = test system: MALME-3M melanoma
[48] = test system: CAKI-1 renal
[49] = test system: MOLT-4 leukemia
[50] = test system: SK-OV-3 ovarian
[51] = test system: MDA-MB-231 breast
[52] = test system: PC-3 prostate
[53] = test system: EKVX NSCLC
[54] = test system: OVCAR-5 ovarian
[55] = test system: HT29 colon
[56] = test system: OVCAR-3 ovarian
[57] = test system: BT-549 breast
[58] = test system: TK-10 renal
[59] = test system: HOP-92 NSCLC

With `NC(=O)c1nnsc1NN=O` the TGI [1] was over 100 µM, the TGI [2] was over 100 µM and the TGI [3] was over 100 µM. For the same compound, the TGI [4] was over 100 µM, the TGI [5] was over 100 µM and the TGI [6] was over 100 µM. It also gave a TGI [7] of over 100 µM, a TGI [8] of over 100 µM and a TGI [9] of over 100 µM. For the same compound, the TGI [10] was over 100 µM, the TGI [11] was over 100 µM and the TGI [12] was over 100 µM. For the same compound, the TGI [13] was over 100 µM, the TGI [14] was over 100 µM and the TGI [15] was over 100 µM. The TGI [16] was over 100 µM, the TGI [17] was over 100 µM and the TGI [18] was over 100 µM. For the same compound, the TGI [19] was over 100 µM, the TGI [20] was over 100 µM and the TGI [21] was over 100 µM. The TGI [22] was over 100 µM, the TGI [23] was over 100 µM and the TGI [24] was over 100 µM. It also gave a TGI [25] of over 100 µM, a TGI [26] of over 100 µM and a TGI [27] of over 100 µM. It also gave a TGI [28] of over 100 µM, a TGI [29] of over 100 µM and a TGI [30] of over 100 µM. The TGI [31] was over 100 µM, the TGI [32] was over 100 µM and the TGI [33] was over 100 µM. The TGI [34] was over 100 µM, the TGI [35] was over 100 µM and the TGI [36] was over 100 µM. For the same compound, the TGI [37] was over 100 µM, the TGI [38] was over 100 µM and the TGI [39] was over 100 µM. It also gave a TGI [40] of over 100 µM, a TGI [41] of over 100 µM and a TGI [42] of over 100 µM. For the same compound, the TGI [43] was over 100 µM, the TGI [44] was over 100 µM and the TGI [45] was over 100 µM. It also gave a TGI [46] of over 100 µM, a TGI [47] of over 100 µM and a TGI [48] of over 100 µM. The TGI [49] was over 100 µM, the TGI [50] was over 100 µM and the TGI [51] was over 100 µM. The TGI [52] was over 100 µM, the TGI [53] was over 100 µM and the TGI [54] was over 100 µM. For the same compound, the TGI [55] was over 100 µM.

In the case of `COc1ccc(-n2c3c(c4cc(O)ccc42)Cc2ccccc2C3=O)cc1`, the TGI [1] is reported as over 100 µM, the TGI [2] is reported as over 100 µM and the TGI [3] is reported as over 100 µM. For the same compound, the TGI [4] was over 100 µM, the TGI [5] was over 100 µM and the TGI [56] was over 100 µM. The TGI [6] was over 100 µM, the TGI [7] was over 100 µM and the TGI [8] was over 100 µM. The TGI [9] was 27.3 µM, the TGI [10] was over 100 µM and the TGI [11] was 51 µM. It also gave a TGI [12] of over 100 µM, a TGI [14] of over 100 µM and a TGI [15] of over 100 µM. The TGI [16] was over 100 µM, the TGI [17] was 86.7 µM and the TGI [19] was over 100 µM. The TGI [20] was over 100 µM, the TGI [21] was 9.38 µM and the TGI [22] was over 100 µM. The TGI [23] was 32.7 µM, the TGI [24] was over 100 µM and the TGI [25] was over 100 µM. For the same compound, the TGI [26] was over 100 µM, the TGI [27] was over 100 µM and the TGI [28] was over 100 µM. The TGI [29] was over 100 µM, the TGI [30] was over 100 µM and the TGI [32] was over 100 µM. It also gave a TGI [33] of over 100 µM, a TGI [34] of over 100 µM and a TGI [35] of over 100 µM. The TGI [36] was over 100 µM, the TGI [37] was 82.1 µM and the TGI [38] was 79.7 µM. For the same compound, the TGI [39] was over 100 µM, the TGI [41] was over 100 µM and the TGI [42] was 31.9 µM. It also gave a TGI [43] of over 100 µM, a TGI [44] of over 100 µM and a TGI [45] of over 100 µM. The TGI [46] was over 100 µM, the TGI [57] was over 100 µM and the TGI [47] was over 100 µM. The TGI [48] was over 100 µM, the TGI [49] was over 100 µM and the TGI [50] was 57 µM. The TGI [51] was over 100 µM, the TGI [52] was 15.3 µM and the TGI [58] was over 100 µM. The TGI [55] was over 100 µM.

For `CCN1CCN(c2nc3ccccc3nc2C(=O)c2ccc(OC)c(OC)c2)CC1`, the TGI [1] was over 100 µM, the TGI [2] was over 100 µM and the TGI [3] was 26.2 µM. For the same compound, the TGI [4] was 3.14 µM, the TGI [5] was over 100 µM and the TGI [56] was 60.6 µM. The TGI [6] was 29.9 µM, the TGI [7] was 50.2 µM and the TGI [8] was over 100 µM. The TGI [9] was 46 µM, the TGI [11] was 2.91 µM and the TGI [12] was 19.7 µM. For the same compound, the TGI [13] was 26.8 µM, the TGI [14] was 27.3 µM and the TGI [15] was over 100 µM. For the same compound, the TGI [16] was 28.3 µM, the TGI [17] was 30 µM and the TGI [18] was over 100 µM. For the same compound, the TGI [19] was 24.4 µM, the TGI [20] was 53.2 µM and the TGI [21] was 29.8 µM. It also gave a TGI [22] of over 100 µM, a TGI [23] of 35.8 µM and a TGI [24] of over 100 µM. For the same compound, the TGI [25] was 31.3 µM, the TGI [26] was 90.6 µM and the TGI [27] was 3.39 µM. The TGI [28] was 88.2 µM, the TGI [29] was over 100 µM and the TGI [30] was over 100 µM. It also gave a TGI [31] of 9.71 µM, a TGI [32] of 98.4 µM and a TGI [33] of 34.1 µM. The TGI [35] was 25.7 µM, the TGI [36] was 47.1 µM and the TGI [37] was 25.7 µM. It also gave a TGI [38] of 45.5 µM, a TGI [39] of 97.7 µM and a TGI [40] of 27.9 µM. For the same compound, the TGI [41] was 32.9 µM, the TGI [42] was 30.1 µM and the TGI [43] was over 100 µM. The TGI [44] was 30.2 µM, the TGI [45] was 46.4 µM and the TGI [46] was 28.8 µM. It also gave a TGI [57] of 65.6 µM, a TGI [47] of 36.5 µM and a TGI [48] of over 100 µM. It also gave a TGI [49] of 30.5 µM, a TGI [50] of 24.5 µM and a TGI [59] of 70.2 µM. The TGI [51] was 32 µM, the TGI [52] was over 100 µM and the TGI [53] was 57.4 µM. The TGI [54] was over 100 µM, the TGI [58] was 87.5 µM and the TGI [55] was 39.4 µM.

`C[N+]12CCN(c3ccccc31)c1ccccc12` was tested, and the TGI [2] was over 10 µM, the TGI [56] was over 10 µM and the TGI [6] was over 10 µM. It also gave a TGI [11] of over 10 µM, a TGI [13] of over 10 µM and a TGI [14] of over 10 µM. For the same compound, the TGI [15] was over 10 µM, the TGI [16] was over 10 µM and the TGI [17] was over 10 µM. For the same compound, the TGI [20] was over 10 µM, the TGI [21] was over 10 µM and the TGI [22] was over 10 µM. For the same compound, the TGI [25] was over 10 µM, the TGI [26] was over 10 µM and the TGI [27] was over 10 µM. For the same compound, the TGI [28] was over 10 µM, the TGI [29] was over 10 µM and the TGI [30] was over 10 µM. It also gave a TGI [32] of over 10 µM, a TGI [34] of 5.42 µM and a TGI [36] of over 10 µM. The TGI [37] was over 10 µM, the TGI [39] was 8.56 µM and the TGI [41] was over 10 µM. It also gave a TGI [42] of over 10 µM, a TGI [44] of over 10 µM and a TGI [46] of over 10 µM. For the same compound, the TGI [48] was over 10 µM, the TGI [59] was over 10 µM and the TGI [51] was over 10 µM. The TGI [52] was over 10 µM, the TGI [53] was over 10 µM and the TGI [54] was over 10 µM. It also gave a TGI [58] of over 10 µM and a TGI [55] of over 10 µM.
